Laboratory results from patent publication US9226912B2, “Acetyltanshinone IIA (ATA) as anticancer agent” (Nanyang Technological University, priority 2011, dated 2016).

Experiments:
ESR1 mRNA in MCF-7 cells = assay: Real-time PCR of ESR1 mRNA level; conditions: 100 pM estrogen plus 6 μM compound
Protocol: MCF-7 cells cultured in the charcoal-stripped medium were used as control for the 0 h sample.

[1] = Solubility relative to TIIA; assay type: physicochemical; conditions: in both DMSO and PBS
Protocol: A mixture of TIIA (2.04 g), sodium acetate (2.5 g), acetic anhydride (18 ml), and anhydrous zinc powder (6 g) is stirred in a boiling water bath for 3 h, then immediately filtrated by using a vacuum filtration system to remove the insoluble residues. The filtrate is diluted with water (300 ml), and then heated to boil. The resulting solution is cooled at room temperature and filtered to give a solid product (1.80 g). The product can be further crystallized using 95% ethanol to produce the final product (1.51 g) acetyltanshinone IIA (ATA) with chemical designation of 1,6,6-trimethyl-8,9-dihydro-10,11-diacetoxyl-7H-naphtho[1,2-g][1]benzofuran (FIG. 2). ATA appeared in white color, which is totally different from its original red color.

MCF-10A = assay: IC50 and LC50 of ATA at 48 h; assay type: cell-based; conditions: Homo sapiens, MCF-10A non-cancer breast cell line
[2] = IC50 and LC50 of ATA at 48 h; assay type: cell-based; conditions: human, MCF-10A cells (non-cancer breast cell line), MCF-10A non-cancer breast cell line
MDA-MB-435 cells = assay: cells; assay type: cell-based; conditions: Homo sapiens, MDA-MB-435, 24 h, read-out: cell viability
Protocol: (A) ROS generation in various cancer cell lines was detected using H2DCFDA after 10 μM ATA treatment for 2 h. The number indicates the fold of increase in ROS level compared to control. (B) Antioxidant prevented ATA-induced MDA-MB-435 cell death. Various antioxidants at the indicated concentration were tested for their protective effects against ATA-induced MDA-MB-435 cell death. Cells were first pre-treated with each antioxidant for 1 h and then ATA was added into the culture medium in the presence of antioxidants. The cell viability was measured by sulforhodamine B (SRB) colorimetric assay for cytotoxicity determination (* p<0.01).
(A) PG prevented ATA-induced cell death. Three concentrations of PG were tested for their protective effects on ATA-induced cell death. The cell viability was measured by SRB assay. (* p<0.01). (B) PG protected ROS generation caused by ATA treatment. […] All the experiments were performed at least three times. The results presented in this figure are the average of three experiments. […]
Since the generation of ROS was detected in all six examined cell lines and it occurred only 2 h after ATA addition, which was at least 4-6 h ahead of Bax translocation, it was speculated that ATA-mediated ROS generation might be the cause for cell death. […] The percentage of cell death after 24 h of ATA treatment was measured using SRB cytotoxicity assay.

CC(=O)Oc1c(OC(C)=O)c2c(C)coc2c2ccc3c(c12)CCCC3(C)C [ATA, 1,6,6-trimethyl-8,9-dihydro-10,11-diacetoxyl-7H-naphtho[1,2-g][1]benzofuran]
level of ESR1 mRNA over control (ESR1 mRNA in MCF-7 cells; 12 h, charcoal-stripped medium): 55%
level of ESR1 mRNA over control (ESR1 mRNA in MCF-7 cells; 24 h, charcoal-stripped medium): 31%
level of ESR1 mRNA over control (ESR1 mRNA in MCF-7 cells; 24 h, normal medium): about 30%
level of ESR1 mRNA over control (ESR1 mRNA in MCF-7 cells; 36 h and 48 h, charcoal-stripped medium): about 50%
higher solubility than TIIA [1]: 22 fold
IC50 (MCF-10A): 6.64 µM
CC50 at 48 h [2]: 16.3 ± 4.46 µM
viability at 5 µM (MDA-MB-435 cells): 35%
